One block for each molecule: values may come before it. Where no end group is shown, it is not given here.
Legend:
[1] = test system: bFGF receptors on Balb/c 3T3 cells; experiment: Receptor binding assay (125I-bFGF competition, Scatchard analysis)
Experimental: The recombinant bFGF was iodinated by the modified chloramine-T method. Briefly, bFGF (5 μg/50 μ1 in 0.5 M phosphate buffer, pH 7.4) was incubated with chloramine-T (20 μg/10 µl of phosphate buffer) and ^125I-labeled sodium (1.12 mCi/10 μ1) at room temperature for 55 sec. The reaction was immediately terminated by the addition of sodium metabisulflte (250 μg/200 μl) and 1% potassium iodide (100 μl), and the mixture was applied to a Sephadex G-50 column (1×20 cm) preequilibrated in 50 mM phosphate buffer containing 0.1% BSA to separate ^125I-labeled bFGF from free ^125I.
Confluent Balb/c 3T3 cells (0.5×10^6/well) were incubated with binding buffer (DMEM, 20mM HEPES, pH7.4) containing ^125I-bFGF (50000 cpm) and different concentrations of unlabeled ligand (bFGF or the synthetic peptide) for 2.5 h at 4°C. For nonspecific binding, cells were incubated with ^125I-bFGF (50000 cpm) and an excess of unlabeled bFGF (200 nM). The cells were washed with (3 × 1 ml) cold PBS (50 mM, PH7.4), and lysed with 1% Triton X-100 (500 μl). The radioactivity of the extracts was measured in a γ counter. Specific binding was determined as the difference between total and nonspecific binding, and data were analyzed by Scatchard analysis.

B16-F10 cells = experiment: Flow cytometric analysis of cell cycle; type: cell-based, murine; conditions: 48 h
Experimental: Cells were starved for 24 h, and treated with 30 ng/ml bFGF or 30 ng/mL bFGF plus serially-diluted peptides for 48 h. After fixing in 70% ice-cold ethanol for 30 min at 4 °C and washing with PBS for 3 times, cells were stained with propidium iodide (PI) in the dark at room temperature for 30 min. The ModFit DNA analysis program was applied to analyze the percentages of cells at various phases of the cell cycle.

[2] = test system: bFGF receptors on Balb/c 3T3 cells; conditions: range of values previously published; cited from earlier work
[3] = test system: B16-F10 murine melanoma cells; conditions: 48 h, 10 nM
Experimental: Cells were seeded in 96-well plates (5 × 10^3 cells/well) in DMEM containing 10% FBS. After incubation at 37°C for 24 h, the culture medium was replaced by DMEM containing 0.4% FBS to starve the cells for 24 h. The medium was then replaced by DMEM containing 30 ng/ml bFGF, or 30 ng/mL bFGF plus peptide at various concentrations. After culturing for 48 h, the number of viable cells was determined by the methylthiazoletetrazolium (MTT) method as previously described [5].

[4] = biological target: T1, bFGF receptors (FGFR1c/FGFR2c on Balb/c 3T3 cells) (Mus musculus, UniProt P16092); experiment: 125I-bFGF competition binding on cells
T1 chain: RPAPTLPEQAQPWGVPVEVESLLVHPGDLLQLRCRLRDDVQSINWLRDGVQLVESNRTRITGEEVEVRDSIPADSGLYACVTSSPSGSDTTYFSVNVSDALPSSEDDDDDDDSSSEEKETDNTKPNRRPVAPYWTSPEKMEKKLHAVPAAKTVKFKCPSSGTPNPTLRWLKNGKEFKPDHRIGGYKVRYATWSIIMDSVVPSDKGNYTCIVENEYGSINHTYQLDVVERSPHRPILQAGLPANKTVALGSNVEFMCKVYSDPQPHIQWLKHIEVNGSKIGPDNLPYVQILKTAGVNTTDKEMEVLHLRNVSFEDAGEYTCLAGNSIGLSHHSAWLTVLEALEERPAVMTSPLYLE

[5] = 30 ng/ml bFGF alone, mean ± SD of 3 independent experiments

Molecule: ^125I-bFGF: recombinant bFGF iodinated by the modified chloramine-T method
receptor population, 125I-bFGF binding, without P9 [1]: approximately 9,600 sites/cell

Molecule: basic fibroblast growth factor [bFGF]
G0/G1 (B16-F10 cells; [5]): 26.45 ± 1.01% | G2/M (B16-F10 cells; [5]): 7.46 ± 0.56% | S (B16-F10 cells; 30 ng/ml bFGF alone, mean ± SD of 3 independent experiments, * P<0.01 vs control group): 66.09 ± 1.22% | effect of bFGF on cell cycle (B16-F10 cells; bFGF alone, 30 ng/ml): significantly increased the percentage of S phase cells, and decreased the ratio of G0/G1 phase cells | receptor sites per cell of high affinity bFGF receptors, previously published [2]: 0.2-10 ×10^4 sites/cell

Molecule: LSPPRYPGGGS-NH2 [P9 peptides]
inhibition of bFGF-stimulated proliferation [3]: ~90%

IC50 [4]: ~2.5 nM
Molecule: LSPPRYPGGGS-NH2 [P9 peptide]

From paper PMC3858566, “Identification of a novel peptide that blocks basic fibroblast growth factor-mediated cell proliferation” (Oncotarget, 2013)
